Data published in patent publication US9835558B2, “Aggregation-induced emission luminogen having an peptide sequence and its uses thereof” (priority 2015, dated 2017).
Residues, ends and D or L forms follow the SMILES beside them. *: point of attachment. X1 = O=C(COc1ccc(C(=C(c2ccccc2)c2ccccc2)c2ccccc2)cc1)*; Palmitoyl = CCCCCCCCCCCCCCCC(=O)*

Assay: cyto-toxicity by MTT assay
Format: cell-based
Conditions: human, MCF-7 cells; TR4 0.05-50 μM, incubation for 30 min, MCF-7, data not shown; read-out: cellular viability

Structure (SMILES): CCCCCCCCCCCCCCCC(=O)NCCCC[C@H](NC(=O)COc1ccc(C(=C(c2ccccc2)c2ccccc2)c2ccccc2)cc1)C(=O)N[C@@H](CCCNC(=N)N)C(=O)N[C@@H](CCCNC(=N)N)C(=O)N[C@@H](CCCNC(=N)N)C(=O)N[C@@H](CCCNC(=N)N)C(N)=O [TR4] (X1-K(Palmitoyl)RRRR-NH2)
- viability at 0.5 h: > 80%
